# In PubChem BioAssay (NCI):
# “And” between values parts separate entries of the source, which are not always exact repeats. Equal entries are not always repeated.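 Step 1: Grow cells in 96-well plates. Step 2: Expose to compound for 48 hours at 5 concentrations. Step 3: Interpolate endpoints linearly; if unreached, use highest concentration. The concentration for 50% growth inhibition is given as GI50. TGI is the concentration that stops growth completely.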
# Legend:
# Experiment in all cases: NCI tumour cell line growth inhibition, 48 h
# [1] = test system: MDA-MB-435
# [2] = test system: NCI-H460 lung
# [3] = test system: HCT-15 colon
# [4] = test system: EKVX NSCLC
# [5] = test system: SK-MEL-5 melanoma
# [6] = test system: HT29 colon
# [7] = test system: A549 NSCLC
# [8] = test system: BT-549 breast
# [9] = test system: NCI-H226 lung
# [10] = test system: HOP-92 NSCLC
Structure (SMILES),GI50 [1] [µM],TGI [1] [µM],GI50 [2] [µM],TGI [2] [µM],GI50 [3] [µM],TGI [3],GI50 [4] [nM],TGI [4] [µM],GI50 [5] [µM],TGI [5] [µM],GI50 [6] [nM],TGI [6] [µM],GI50 [7] [nM],TGI [7] [µM],GI50 [8] [nM],TGI [8] [µM],GI50 [9] [µM],TGI [9] [µM],GI50 [10] [nM],TGI [10] [µM]
CC12OC(C(=O)C13CC3)C1C(=O)c3cccc(O)c3C(=O)C12 (stereo not drawn),16.9,> 57.7,18.6,68.3,9.82,> 54.8 µM,11800,37.6,6.79,> 100,10600,> 100,28700,> 100,19100,58.1,22.9,78.5,31100,> 100
O=C(O)c1ccc(NCn2nc(-c3ccccc3O)oc2=S)cc1O,> 100,> 100,95.6,> 100,32,92.6 µM,> 100000,> 100,> 100,> 100,> 100000,> 100,> 100000,> 100,> 100000,> 100,21,> 100,> 100000,> 100
COc1ncnn2ccc(-c3cnc4nc(C)n(Cc5nnc(C(C)F)o5)c4c3)c12 (stereo not drawn),0.223,> 100,0.242,> 100,0.199,,272,> 36.4,,,253,0.631,136,> 100,58.5,1.61,0.156,0.949,204,2
Nc1n[nH]c2ccc([C@H]3[C@@H]4C5CCC(C5)[C@@H]4c4c(ccc5[nH]ncc45)N3S(=O)(=O)C3CC3)cc12 (stereo partly drawn),0.141,1.35,0.181,8.38,0.198,> 28.8 µM,264,> 45.4,0.251,1.29,171,8.52,237,> 25.6,340,5.73,0.441,10.1,422,11.1
Cc1cc2c(=O)cc(-c3ccc(O)cc3)oc2c(C(=O)O)c1C,,,,> 100,,> 100 µM,,> 100,,> 100,,> 100,,> 100,,,,> 100,,> 100
CC(=O)OC1C(COC(N)=O)OC(n2c(-c3ccc(C)cc3)cc(-c3ccccc3)c(C#N)c2=O)C(OC(C)=O)C1OC(C)=O (stereo not drawn),,,,> 100,,> 100 µM,,> 100,,> 100,,> 100,,> 100,,,,> 100,,> 100
S=C1NC(c2ccccc2)=NC(Cc2ccccc2)(c2ccccc2)N1c1ccccc1 (stereo not drawn),,,,> 100,,> 100 µM,,> 100,,> 100,,> 100,,> 100,,,,> 100,,> 100
N#CC1(C#N)C2C=CC(C3CC=CC32)C1(C#N)C#N (stereo not drawn),9.78,18.8,,> 50,13.2,4.17 µM and 35.9 µM,,24,8.61,15.6,,21.9,,21,,,,> 50,,14.8
